pIC50: −log10 of the molar value.

T1 sequence (O76083 whole entry): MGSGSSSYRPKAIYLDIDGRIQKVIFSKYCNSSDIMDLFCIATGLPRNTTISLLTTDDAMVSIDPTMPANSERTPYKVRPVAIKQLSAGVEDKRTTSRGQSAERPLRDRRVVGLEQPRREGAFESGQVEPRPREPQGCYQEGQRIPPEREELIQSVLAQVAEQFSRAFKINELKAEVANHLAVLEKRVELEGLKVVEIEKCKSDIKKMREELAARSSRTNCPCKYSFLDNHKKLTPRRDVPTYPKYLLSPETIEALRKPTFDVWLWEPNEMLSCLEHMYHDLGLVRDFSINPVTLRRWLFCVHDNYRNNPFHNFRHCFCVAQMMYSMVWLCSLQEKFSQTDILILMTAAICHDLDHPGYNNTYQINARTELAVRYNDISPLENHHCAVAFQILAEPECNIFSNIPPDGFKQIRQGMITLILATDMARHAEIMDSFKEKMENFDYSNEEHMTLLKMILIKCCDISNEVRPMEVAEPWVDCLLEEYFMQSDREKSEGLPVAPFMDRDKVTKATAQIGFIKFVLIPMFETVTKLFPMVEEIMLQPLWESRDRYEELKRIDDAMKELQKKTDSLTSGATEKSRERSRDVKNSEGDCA

The test concerns the target T1, human recombinant PDE9 enzyme (Homo sapiens, UniProt O76083).
T1 construct: made in house; host or cells: SF-9 insect cells
Kind of test: Phosphodiesterase 9 (PDE9) inhibitory activity, Scintillation Proximity (SPA) assay. It is filed as biochemical. Conditions: human recombinant PDE9 from SF-9 cells; 50 nM [3H]cGMP; room temperature, 30 min; additional compounds Ex. 115-228; read-out: G5678A (U):IC50. The gist of the method:
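Recombinant human PDE9 from SF-9 cell lysate supernatant, diluted so that ≤20% of [3H]cGMP substrate was hydrolysed to 5′GMP. Reaction started with enzyme and run 30 min at room temperature with 2% DMSO final. SPA beads were counted after >300 min; background came from a high concentration of a PDE inhibitor.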
For orientation: pIC50 means the negative decadic logarithm of the IC50, by convention in mol/L. Turning to `Cc1ccc(CN2C[C@@H](C)[C@H](c3nc4c(cnn4C4CCCC4)c(=O)[nH]3)C2)cc1` (racemic) [Example 136, 1-cyclopentyl-6-[(3,4-trans)-4-methyl-1-(4-methylbenzyl)pyrrolidin-3-yl]-1,5-dihydro-4H-pyrazolo[3,4-d]pyrimidin-4-one], the negative-log IC50 (pIC50) was 6.88.

Consider `C[C@@H]1CN(Cc2ccc3ccccc3c2)C[C@H]1c1nc2c(cnn2C2CCCC2)c(=O)[nH]1` (racemic) [Example 137, 1-cyclopentyl-6-[(3,4-trans)-4-methyl-1-(2-naphthylmethyl)pyrrolidin-3-yl]-1,5-dihydro-4H-pyrazolo[3,4-d]pyrimidin-4-one], for which the pIC50 is 7.26. As for `COc1ncccc1CN1C[C@@H](C)[C@H](c2nc3c(cnn3C3CCCC3)c(=O)[nH]2)C1` (racemic) [Example 138, 1-cyclopentyl-6-{(3,4-trans}-1-[(2-methoxypyridin-3-yl)methyl]-4-methylpyrrolidin-3-yl}-1,5-dihydro-4H-pyrazolo[3,4-d]pyrimidin-4-one], the figure is 7.32. With `CCOc1ccccc1CN1C[C@@H](C)[C@H](c2nc3c(cnn3C3CCCC3)c(=O)[nH]2)C1` (racemic) [Example 139, 1-cyclopentyl-6-[(3,4-trans)-1-(2-ethoxybenzyl)-4-methylpyrrolidin-3-yl]-1,5-dihydro-4H-pyrazolo[3,4-d]pyrimidin-4-one] the figure was 7.01; with `C[C@@H]1CN(Cc2ccc(-n3cncn3)cc2)C[C@H]1c1nc2c(cnn2C2CCCC2)c(=O)[nH]1` (racemic) [Example 140, 1-cyclopentyl-6-{(3,4-trans)-4-methyl-1-[4-(1H-1,2,4-triazol-1-yl)benzyl]pyrrolidin-3-yl}-1,5-dihydro-4H-pyrazolo[3,4-d]pyrimidin-4-one], 7.57; with `COc1cc(CN2C[C@@H](C)[C@H](c3nc4c(cnn4C4CCCC4)c(=O)[nH]3)C2)ccc1C` (racemic) [Example 141, 1-cyclopentyl-6-[(3,4-trans)-1-(3-methoxy-4-methylbenzyl)-4-methylpyrrolidin-3-yl]-1,5-dihydro-4H-pyrazolo[3,4-d]pyrimidin-4-one], 7.27. As for `C[C@@H]1CN(Cc2cccc3ccccc23)C[C@H]1c1nc2c(cnn2C2CCCC2)c(=O)[nH]1` (racemic) [Example 142, 1-cyclopentyl-6-[(3,4-trans)-4-methyl-1-(1-naphthylmethyl)pyrrolidin-3-yl]-1,5-dihydro-4H-pyrazolo[3,4-d]pyrimidin-4-one], the figure is 7.32.

For `COc1ccc(OC)c(CN2C[C@@H](C)[C@H](c3nc4c(cnn4C4CCCC4)c(=O)[nH]3)C2)c1` (racemic) [Example 144, 1-cyclopentyl-6-[(3,4-trans)-1-(2,5-dimethoxybenzyl)-4-methylpyrrolidin-3-yl]-1,5-dihydro-4H-pyrazolo[3,4-d]pyrimidin-4-one], the pIC50 was 7.00. As for `Cc1cc(CN2C[C@@H](C)[C@H](c3nc4c(cnn4C4CCCC4)c(=O)[nH]3)C2)no1` (racemic) [Example 145, 1-cyclopentyl-6-{(3,4-trans)-4-methyl-1-[(5-methylisoxazol-3-yl)methyl]pyrrolidin-3-yl}-1,5-dihydro-4H-pyrazolo[3,4-d]pyrimidin-4-one], the figure is 7.11. `COc1cccc(F)c1CN1C[C@@H](C)[C@H](c2nc3c(cnn3C3CCCC3)c(=O)[nH]2)C1` (racemic) [Example 146, 1-cyclopentyl-6-[(3,4-trans)-1-(2-fluoro-6-methoxybenzyl)-4-methylpyrrolidin-3-yl]-1,5-dihydro-4H-pyrazolo[3,4-d]pyrimidin-4-one]: the pIC50 is 6.78. As for `C[C@@H]1CN(Cc2ccc(F)cc2F)C[C@H]1c1nc2c(cnn2C2CCCC2)c(=O)[nH]1` (racemic) [Example 147, 1-cyclopentyl-6-[(3,4-trans)-1-(2,4-difluorobenzyl)-4-methylpyrrolidin-3-yl]-1,5-dihydro-4H-pyrazolo[3,4-d]pyrimidin-4-one], the figure is 7.10. With `COc1cc(CN2C[C@@H](C)[C@H](c3nc4c(cnn4C4CCCC4)c(=O)[nH]3)C2)ccc1F` (racemic) [Example 148, 1-cyclopentyl-6-[(3,4-trans)-1-(4-fluoro-3-methoxybenzyl)-4-methylpyrrolidin-3-yl]-1,5-dihydro-4H-pyrazolo[3,4-d]pyrimidin-4-one] the figure was 7.44; with `C[C@@H]1CN(Cc2cccc3c2OCCO3)C[C@H]1c1nc2c(cnn2C2CCCC2)c(=O)[nH]1` (racemic) [Example 149, 1-cyclopentyl-6-[(3,4-trans)-1-(2,3-dihydro-1,4-benzodioxin-5-ylmethyl)-4-methylpyrrolidin-3-yl]-1,5-dihydro-4H-pyrazolo[3,4-d]pyrimidin-4-one], 7.33; with `C[C@@H]1CN(Cc2ccc(F)cc2Cl)C[C@H]1c1nc2c(cnn2C2CCCC2)c(=O)[nH]1` (racemic) [Example 150, 6-[(3,4-trans)-1-(2-chloro 4-fluorobenzyl)-4-methylpyrrolidin-3-yl]-1-cyclopentyl-1,5-dihydro-4H-pyrazolo[3,4-] pyrimidin-4-one], 7.03. With `Cc1ccc(CN2C[C@@H](C)[C@H](c3nc4c(cnn4C4CCCC4)c(=O)[nH]3)C2)c(C)c1` (racemic) [Example 151, 1-cyclopentyl-6-[(3,4-trans)-1-(2,4-dimethylbenzyl)-4-methylpyrrolidin-3-yl]-1,5-dihydro-4H-pyrazolo[3,4-d]pyrimidin-4-one] the figure was 6.93; with `COc1cc(CN2C[C@@H](C)[C@H](c3nc4c(cnn4C4CCCC4)c(=O)[nH]3)C2)cc(OC)c1` (racemic) [Example 152, 1-cyclopentyl-6-[(3,4-trans)-1-(3,5-dimethoxybenzyl)-4-methylpyrrolidin-3-yl]-1,5-dihydro-4H-pyrazolo[3,4-d]pyrimidin-4-one], 7.37; with `CCOc1cccc(CN2C[C@@H](C)[C@H](c3nc4c(cnn4C4CCCC4)c(=O)[nH]3)C2)c1` (racemic) [Example 153, 1-cyclopentyl-6-[(3,4-trans)-1-(3-ethoxybenzyl)-4-methylpyrrolidin-3-yl]-1,5-dihydro-4H-pyrazolo[3,4-d]pyrimidin-4-one], 7.26.

With `C[C@@H]1CN(Cc2ccc(Cl)cc2F)C[C@H]1c1nc2c(cnn2C2CCCC2)c(=O)[nH]1` (racemic) [Example 154, 6-[(3,4-trans)-1-(4-chloro-2-fluorobenzyl)-4-methylpyrrolidin-3-yl]-1-cyclopentyl-1,5-dihydro-4H-pyrazolo[3,4-d]pyrimidin-4-one], the pIC50 was 6.76.

`C[C@@H]1CN(Cc2cccc(C#N)c2)C[C@H]1c1nc2c(cnn2C2CCCC2)c(=O)[nH]1` (racemic) [Example 155, 3-{[(3,4-trans)-3-(1-cyclopentyl-4-oxo-4,5-dihydro-1H-pyrazolo[3,4-d]pyrimidin-6-yl)-4-methylpyrrolidin-1-yl]methyl}benzonitrile]: the negative logarithm of the IC50 (pIC50) was 7.55. As to `C[C@@H]1CN(Cc2cc(F)ccc2F)C[C@H]1c1nc2c(cnn2C2CCCC2)c(=O)[nH]1` (racemic) [Example 156, 1-cyclopentyl-6-[(3,4-trans)-1-(2,5-difluorobenzyl)-4-methylpyrrolidin-3-yl]-1,5-dihydro-4H-pyrazolo[3,4-d]pyrimidin-4-one], the pIC50 was 7.39.

On to `C[C@@H]1CN(Cc2ccccc2C#N)C[C@H]1c1nc2c(cnn2C2CCCC2)c(=O)[nH]1` (racemic) [Example 157, 2-{[(3,4-trans)-3-(1-cyclopentyl-4-oxo-4,5-dihydro-1H-pyrazolo[3,4-d]pyrimidin-6-yl)-4-methylpyrrolidin-1-yl]methyl}benzonitrile], for which the pIC50 is 7.25. As for `C[C@@H]1CN(Cc2ccc(F)c(Cl)c2)C[C@H]1c1nc2c(cnn2C2CCCC2)c(=O)[nH]1` (racemic) [Example 158, 6-[(3,4-trans)-1-(3-chloro-4-fluorobenzyl)-4-methylpyrrolidin-3-yl]-1-cyclopentyl-1,5-dihydro-4H-pyrazolo[3,4-d]pyrimidin-4-one], the figure is 7.29; as for `C[C@@H]1CN(Cc2ccc(OC(F)F)cc2)C[C@H]1c1nc2c(cnn2C2CCCC2)c(=O)[nH]1` (racemic) [Example 159, 1-cyclopentyl-6-{(3,4-trans)-1-[4-(difluoromethoxy)benzyl]-4-methylpyrrolidin-3-yl}-1,5-dihydro-4H-pyrazolo[3,4-d]pyrimidin-4-one], 7.22. As for `Cc1cccc(CN2C[C@@H](C)[C@H](c3nc4c(cnn4C4CCCC4)c(=O)[nH]3)C2)c1` (racemic) [Example 160, 1-cyclopentyl-6-[(3,4-trans)-4-methyl-1-(3-methylbenzyl)pyrrolidin-3-yl]-1,5-dihydro-4H-pyrazolo[3,4-d]pyrimidin-4-one], the figure is 7.36; as for `C[C@@H]1CN(Cc2ccc(F)c(F)c2)C[C@H]1c1nc2c(cnn2C2CCCC2)c(=O)[nH]1` (racemic) [Example 161, 1-cyclopentyl-6-[(3,4-trans)-1-(3,4-difluorobenzyl)-4-methylpyrrolidin-3-yl]-1,5-dihydro-4H-pyrazolo[3,4-d]pyrimidin-4-one], 7.39; as for `Cc1ccc(C)c(CN2C[C@@H](C)[C@H](c3nc4c(cnn4C4CCCC4)c(=O)[nH]3)C2)c1` (racemic) [Example 162, 1-cyclopentyl-6-[(3,4-trans)-1-(2,5-dimethylbenzyl)-4-methylpyrrolidin-3-yl]-1,5-dihydro-4H-pyrazolo[3,4-d]pyrimidin-4-one], 7.22.

In the case of `C[C@@H]1CN(Cc2cccc(Cl)c2F)C[C@H]1c1nc2c(cnn2C2CCCC2)c(=O)[nH]1` (racemic) [Example 163, 6-[(3,4-trans)-1-(3-chloro-2-fluorobenzyl)-4-methylpyrrolidin-3-yl]-1-cyclopentyl-1,5-dihydro-4H-pyrazolo[3,4-d]pyrimidin-4-one], the negative-log IC50 (pIC50) is 7.27.

The values are drawn from US7964607B2, “Pyrazolo[3,4-d]pyrimidine compounds” (Pfizer Inc., priority 2007, dated 2011).
